According to PubChem BioAssay AID330 (DTP/NCI, 2004):
Values joined by “and” are separate entries in the source; they are usually repeats but may differ in a detail not shown here. Identical values can stand only once. Inconclusive results and toxic doses are left out. How the source made its calls: active means survival T/C of 150% or more; inactive means T/C below 125% in these data.

System: P388 leukemia ip, CD2F1 mice, survival T/C
Test: NCI In Vivo Anticancer Drug Screen. Data for tumor model P388 Leukemia (intraperitoneal) in CD2F1 (CDF1) mice
Conditions: endpoint: median survival time, higher = longer survival
Procedure, shortened: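 Mice carrying the transplanted tumor received test compound or vehicle. Survival was recorded in each group, and the value is the treated-group measurement divided by that of the vehicle-treated control group.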

[1] = dose: 100.0 mg/kg/injection, schedule: Q04DX002 (ip), vehicle: saline with Tween-80
[2] = dose: 200.0 mg/kg/injection, schedule: Q04DX002 (ip), vehicle: saline with Tween-80
[3] = dose: 400.0 mg/kg/injection, schedule: Q04DX002 (ip), vehicle: saline with Tween-80
[4] = dose: 50.0 mg/kg/injection, schedule: Q01DX005 (ip), vehicle: saline with Tween-80
[5] = dose: 100.0 mg/kg/injection, schedule: Q01DX005 (ip), vehicle: saline with Tween-80
[6] = dose: 200.0 mg/kg/injection, schedule: Q01DX005 (ip), vehicle: saline with Tween-80
[7] = dose: 100.0 mg/kg/injection, schedule: Q04DX003 (ip), vehicle: saline
[8] = dose: 200.0 mg/kg/injection, schedule: Q04DX003 (ip), vehicle: saline
[9] = dose: 50.0 mg/kg/injection, schedule: Q01DX009 (ip), vehicle: saline
[10] = dose: 100.0 mg/kg/injection, schedule: Q01DX009 (ip), vehicle: saline
[11] = dose: 200.0 mg/kg/injection, schedule: Q01DX009 (ip), vehicle: saline
[12] = dose: 50.0 mg/kg/injection, schedule: Q01DX009 (ip), vehicle: Klucel (hydroxypropylcellulose) (HPC)
[13] = dose: 100.0 mg/kg/injection, schedule: Q01DX009 (ip), vehicle: Klucel (hydroxypropylcellulose) (HPC)
[14] = dose: 50.0 mg/kg/injection, schedule: Q01DX009 (ip), vehicle: saline with Tween-80
[15] = dose: 100.0 mg/kg/injection, schedule: Q01DX009 (ip), vehicle: saline with Tween-80
[16] = dose: 200.0 mg/kg/injection, schedule: Q01DX009 (ip), vehicle: saline with Tween-80
[17] = dose: 200.0 mg/kg/injection, schedule: Q01DX009 (ip), vehicle: Klucel (hydroxypropylcellulose) (HPC)
[18] = dose: 60.0 mg/kg/injection, schedule: Q01DX005 (ip), vehicle: saline with Tween-80
[19] = dose: 120.0 mg/kg/injection, schedule: Q01DX005 (ip), vehicle: saline with Tween-80
[20] = dose: 240.0 mg/kg/injection, schedule: Q01DX005 (ip), vehicle: saline with Tween-80
[21] = dose: 50.0 mg/kg/injection, schedule: Q01DX005 (ip), vehicle: Klucel (hydroxypropylcellulose) (HPC)
[22] = dose: 100.0 mg/kg/injection, schedule: Q01DX005 (ip), vehicle: Klucel (hydroxypropylcellulose) (HPC)
[23] = dose: 200.0 mg/kg/injection, schedule: Q01DX005 (ip), vehicle: Klucel (hydroxypropylcellulose) (HPC)
[24] = dose: 6.25 mg/kg/injection, schedule: Q01DX005 (ip), vehicle: Klucel (hydroxypropylcellulose) (HPC)
[25] = dose: 12.5 mg/kg/injection, schedule: Q01DX005 (ip), vehicle: Klucel (hydroxypropylcellulose) (HPC)
[26] = dose: 25.0 mg/kg/injection, schedule: Q01DX005 (ip), vehicle: Klucel (hydroxypropylcellulose) (HPC)
[27] = dose: 12.5 mg/kg/injection, schedule: Q01DX005 (ip), vehicle: saline with Tween-80

Measured: T/C

CCOC(=O)N(O)c1ccc(C)cc1
inactive: [1] 109 % of control | [2] 112 % of control | [3] 124 % of control

COC(=O)C(CC(C)C)NC(=O)C(Cc1ccc(O)cc1)N(C(=O)OCc1ccccc1)C(=O)OCc1ccccc1 (configuration not stated)
inactive: [4] 103 % of control | [5] 94 % of control | [6] 92 % of control

O=C(O)C(=O)c1ccccc1
inactive: dose: 50.0 mg/kg/injection, schedule: Q04DX003 (ip), vehicle: saline 100 % of control | [7] 105 % of control | [8] 100 % of control

Cc1cc(C)n(-c2ccc(Cl)nn2)n1
inactive: [9] 99 % of control | [10] 95 % of control | [11] 100 % of control

O=[N+]([O-])c1ccc([Se]CCO)c([N+](=O)[O-])c1
inactive: [12] 101 % of control | [13] 99 % of control

CCCC(=O)Nc1ccccc1
inactive: [14] 100 % of control | [15] 100 % of control | [16] 93 % of control

Cc1ccnc(NS(=O)(=O)c2ccc(N=Nc3c(O)n(-c4ccccc4)n(-c4ccccc4)c3=O)cc2)n1
inactive: [12] 86 % of control | [13] 86 % of control | [17] 91 % of control

CC(=O)OC1C(c2ccc(Cl)cc2)CC2CCC1N2C (configuration not stated)
inactive: [4] 103 % of control | [5] 102 % of control

Oc1cc2c(cc1C(c1ccc3c(c1)OCO3)N1CCOCC1)OCO2 (configuration not stated)
inactive: [18] 118 % of control | [19] 106 % of control | [20] 111 % of control

Nc1[nH]n(-c2ccccc2)c(=O)c1C1c2ccccc2Sc2ccccc21
inactive: [18] 99 % of control | [19] 99 % of control | [20] 95 % of control

N#Cc1c(N)[nH]c2ccc(Sc3ccccc3)cc12
inactive: dose: 7.5 mg/kg/injection, schedule: Q01DX005 (ip), vehicle: saline with Tween-80 97 % of control | dose: 15.0 mg/kg/injection, schedule: Q01DX005 (ip), vehicle: saline with Tween-80 99 % of control | dose: 30.0 mg/kg/injection, schedule: Q01DX005 (ip), vehicle: saline with Tween-80 104 % of control

O=C1NC(=O)C(Cc2ccc(N(CCO)CCO)cc2)(c2ccccc2)N1 (configuration not stated)
inactive: [21] 108 % of control and 109 % of control and 116 % of control | [22] 111 % of control and 121 % of control | [23] 117 % of control and 120 % of control | dose: 400.0 mg/kg/injection, schedule: Q01DX005 (ip), vehicle: Klucel (hydroxypropylcellulose) (HPC) 110 % of control and 124 % of control

Cn1c(=O)c2nsnc2n(C)c1=O
inactive: dose: 50.0 mg/kg/injection, schedule: Q04DX002 (ip), vehicle: Klucel (hydroxypropylcellulose) (HPC) 110 % of control | dose: 100.0 mg/kg/injection, schedule: Q04DX002 (ip), vehicle: Klucel (hydroxypropylcellulose) (HPC) 100 % of control and 110 % of control | dose: 200.0 mg/kg/injection, schedule: Q04DX002 (ip), vehicle: Klucel (hydroxypropylcellulose) (HPC) 107 % of control

CC1(C)N(O)C(c2cccnc2)=[N+]([O-])C1(C)C
inactive: [21] 104 % of control | [9] 97 % of control | [22] 101 % of control | [10] 94 % of control | [23] 103 % of control | [11] 102 % of control

Cc1ccc(S(=O)/C=C/c2ccccc2)cc1 (configuration not stated)
inactive: dose: 50.0 mg/kg/injection, schedule: Q01DX009 (ip), vehicle: other 103 % of control | dose: 100.0 mg/kg/injection, schedule: Q01DX009 (ip), vehicle: other 97 % of control | dose: 200.0 mg/kg/injection, schedule: Q01DX009 (ip), vehicle: other 101 % of control

CS(=O)(=O)/C=C/C([N+](=O)[O-])[N+](=O)[O-]
inactive: [7] 109 % of control | [8] 104 % of control | dose: 400.0 mg/kg/injection, schedule: Q04DX003 (ip), vehicle: saline 92 % of control

CN=C1C=CC(=C(c2ccc(N(C)C)cc2)c2ccc(N(C)C)cc2)C=C1
inactive: [24] 119 % of control

COc1ccc(CCN2C(=O)C(=O)N(c3cccc4c(N5C(=O)C(=O)N(CCc6ccc(OC)c(OC)c6)C5=O)cccc34)C2=O)cc1OC
inactive: [12] 95 % of control | [13] 93 % of control | [17] 96 % of control

CCN1C(=O)CC(SC2CC(=O)N(CC)C2=O)C1=O (configuration not stated)
inactive: [21] 99 % of control | [22] 95 % of control | [23] 99 % of control

COC(=O)C1(CC(=O)C(c2ccccc2)c2ccccc2)NC(=S)NC(=O)C1C#N (configuration not stated)
inactive: dose: 60.0 mg/kg/injection, schedule: Q01DX005 (ip), vehicle: saline 98 % of control | dose: 120.0 mg/kg/injection, schedule: Q01DX005 (ip), vehicle: saline 95 % of control | dose: 240.0 mg/kg/injection, schedule: Q01DX005 (ip), vehicle: saline 100 % of control

O=c1nc(-c2ccco2)sc(=O)[nH]1
inactive: dose: 25.0 mg/kg/injection, schedule: Q01DX009 (ip), vehicle: Klucel (hydroxypropylcellulose) (HPC) 109 % of control | [12] 106 % of control and 117 % of control | [13] 113 % of control | [17] 105 % of control and 121 % of control

CCCN1C(=O)C(C)N(S(=O)(=O)c2ccc(-n3nc(C)cc3C)cc2)C1=S (configuration not stated)
inactive: [1] 94 % of control | [2] 102 % of control | [3] 100 % of control

Nc1cc2c3c(cccc3c1O)CC2
inactive: [24] 99 % of control | [25] 102 % of control | [26] 102 % of control

CC(SCCCCCCSC(C)C(=O)O)C(=O)O (configuration not stated)
inactive: [21] 110 % of control | [22] 97 % of control | [23] 95 % of control

CNC(=O)OCc1ccc(NCCN(C)C)c2c(=O)c3cc(O)ccc3sc12
inactive: [27] 112 % of control

O=C(/C=C(\C(=O)c1ccccc1)c1ccccc1)c1ccccc1
inactive: dose: 50.0 mg/kg/injection, schedule: Q01DX009 (ip), vehicle: saline sonified 100 % of control | dose: 100.0 mg/kg/injection, schedule: Q01DX009 (ip), vehicle: saline sonified 100 % of control | dose: 200.0 mg/kg/injection, schedule: Q01DX009 (ip), vehicle: saline sonified 100 % of control

CCOC(=O)c1cn(C)c2c1C(=O)C(C(=O)OCC)CCN2C(=O)OCC (configuration not stated)
inactive: [14] 99 % of control | [15] 105 % of control | [16] 107 % of control

S=C1SCN(C2CCCCC2)CN1C1CCCCC1
inactive: [13] 100 % of control | [17] 105 % of control | dose: 400.0 mg/kg/injection, schedule: Q01DX009 (ip), vehicle: Klucel (hydroxypropylcellulose) (HPC) 107 % of control

O=C(OC1(c2nccc3ccccc23)CCNCC1)c1ccccc1
inactive: [25] 111 % of control | [26] 109 % of control | [21] 103 % of control and 104 % of control

Cc1ccc(S(=O)C2=CCCO2)cc1 (configuration not stated)
inactive: [25] 100 % of control | [26] 102 % of control | [21] 101 % of control and 108 % of control | [22] 119 % of control | [23] 118 % of control

[N-]=[N+]=Nc1ccc(NCCN2C(=O)C=CC2=O)c([N+](=O)[O-])c1
inactive: [4] 103 % of control | [5] 101 % of control | [6] 101 % of control

CCCCCCCCCCCC1(O)OC(=O)C(C)=C1C (configuration not stated)
inactive: dose: 12.5 mg/kg/injection, schedule: Q04DX003 (ip), vehicle: saline with Tween-80 101 % of control | dose: 25.0 mg/kg/injection, schedule: Q04DX003 (ip), vehicle: saline with Tween-80 108 % of control | dose: 50.0 mg/kg/injection, schedule: Q04DX003 (ip), vehicle: saline with Tween-80 103 % of control

CCOC(OCC)/C(=C\N(C)C)N=C(C#N)C#N
inactive: [4] 113 % of control | [5] 111 % of control

Cc1ccc(N2CC(=O)N3CCCN3C(=O)C2)cc1
inactive: dose: 6.25 mg/kg/injection, schedule: Q01DX005 (ip), vehicle: saline with Tween-80 98 % of control | [27] 100 % of control | dose: 25.0 mg/kg/injection, schedule: Q01DX005 (ip), vehicle: saline with Tween-80 102 % of control
